Structures can show the parent of a compound that is named as a salt.
Columns and labels:
[1] = target: human activated kallikrein enzyme (Homo sapiens, UniProt P03952); assay: Inhibition of human activated plasma kallikrein, fluorogenic PFR-AMC substrate, 500 pM enzyme format; type: biochemical; details: 500 pM activated kallikrein; 300 μM PFR-AMC; 30 min preincubation; 10 min room temperature; pH 7.5; read-out: Primary Dose Response Assay: Average EC50
Outline: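 500 pM activated kallikrein preincubated 30 min at room temperature with inhibitors in pH 7.5 Tris/EDTA/NaCl buffer with PEG-400 and Triton X-100. Reaction started with 300 μM PFR-AMC, run 10 min at room temperature; AMC fluorescence read at ex 380/em 460 nm.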

plasma kallikrein = target: T1, plasma kallikrein (Homo sapiens, UniProt P03952); assay: Neat Human Plasma Assay (Fluorogenic Peptide), contact pathway-activated (FXIIa) plasma; type: biochemical; details: human citrated plasma 78% final; 10 nM human FXIIa; PFR-AMC substrate; 5 minutes; room temperature
T1 construct: PFR-AMC substrate
T1 sequence (P03952 20-638): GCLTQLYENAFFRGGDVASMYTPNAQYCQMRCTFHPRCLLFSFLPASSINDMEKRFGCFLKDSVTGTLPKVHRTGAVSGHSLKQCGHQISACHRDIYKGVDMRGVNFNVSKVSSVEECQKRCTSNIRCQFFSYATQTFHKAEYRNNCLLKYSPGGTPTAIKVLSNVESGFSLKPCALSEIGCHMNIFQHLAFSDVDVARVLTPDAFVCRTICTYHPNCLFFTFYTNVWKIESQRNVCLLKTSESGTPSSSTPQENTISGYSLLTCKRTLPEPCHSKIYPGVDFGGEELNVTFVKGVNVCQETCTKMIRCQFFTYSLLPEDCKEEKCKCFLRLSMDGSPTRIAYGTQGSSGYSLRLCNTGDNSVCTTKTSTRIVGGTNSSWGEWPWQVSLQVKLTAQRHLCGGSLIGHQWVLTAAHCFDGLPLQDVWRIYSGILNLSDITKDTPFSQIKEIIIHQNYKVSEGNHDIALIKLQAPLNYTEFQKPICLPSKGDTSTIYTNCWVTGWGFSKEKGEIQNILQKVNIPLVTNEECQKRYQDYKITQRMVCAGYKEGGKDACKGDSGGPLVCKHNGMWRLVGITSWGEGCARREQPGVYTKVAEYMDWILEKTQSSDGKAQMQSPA
Description: To analyze inhibition of plasma kallikrein in an ex vivo setting, the potency of compounds was measure in contact pathway-activated plasma assays. In a fluorogenic peptide substrate assay, test compounds dissolved in DMSO were added to sodium citrate collected human or rat plasma in a 96-well microplate. Alternatively, citrated plasma was collected from rats administered the compounds orally or by IV. 10 nM of human FXIIa (Enzyme Research Laboratories) diluted in PKa buffer (20 mM Tris-HCl, pH 7.5, 150 mM NaCl, 1 mM EDTA, 0.1% PEG-8000, and 0.1% Triton X-100) was added to the plasma, followed by the […] of the profluorescent, synthetic plasma kallikrein substrate PFR-AMC (also diluted in PKa buffer). Final plasma concentration in the reaction was 78%. Fluorescence was immediately monitored by excitation/emission wavelengths of 360 nm/480 nm respectively over a period of 5 minutes in a microplate reader. The resulting linear increase in fluorescence emission (reflecting PKa proteolysis of PFR-AMC substrate) was fit to extract a proteolytic rate (fluorescent units over time), and this rate was subsequently plotted against compound inhibitor concentration. Resulting plots were fit to a standard 4-parameter IC50/IC90 equation to determine min/max values, IC50/90, and slope. All experimental steps were performed at room temperature.

Sequence of human activated kallikrein enzyme (P03952 391-638 limits assumed): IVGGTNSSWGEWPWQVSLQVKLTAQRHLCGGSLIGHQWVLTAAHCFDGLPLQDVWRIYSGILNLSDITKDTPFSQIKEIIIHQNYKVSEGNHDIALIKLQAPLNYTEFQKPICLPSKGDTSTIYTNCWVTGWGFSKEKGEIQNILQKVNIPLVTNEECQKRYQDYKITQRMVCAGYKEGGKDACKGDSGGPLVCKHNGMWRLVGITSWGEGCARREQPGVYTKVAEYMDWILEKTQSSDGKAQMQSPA
Sequence of human activated kallikrein enzyme (P03952 20-390 partner limits assumed): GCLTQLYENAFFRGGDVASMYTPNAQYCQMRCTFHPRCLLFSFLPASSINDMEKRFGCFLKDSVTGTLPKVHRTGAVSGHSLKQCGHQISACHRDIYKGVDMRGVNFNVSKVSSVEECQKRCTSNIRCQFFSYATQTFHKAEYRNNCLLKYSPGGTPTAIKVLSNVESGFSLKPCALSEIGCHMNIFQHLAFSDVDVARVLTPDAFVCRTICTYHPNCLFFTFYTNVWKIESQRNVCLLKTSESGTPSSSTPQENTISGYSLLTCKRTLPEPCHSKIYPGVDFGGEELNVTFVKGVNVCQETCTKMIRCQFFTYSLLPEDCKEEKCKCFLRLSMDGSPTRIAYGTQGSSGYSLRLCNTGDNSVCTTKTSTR

Molecule | EC50 [1] [µM] | IC90 (plasma kallikrein) [µM]
Cc1cc2c(N)nccc2c(C)c1CNc1cc(OCc2ccc(Cn3cccn3)cc2)ncn1 [Example 251, 6-(((6-((4-((1H-pyrazol-1-yl)methyl)benzyl)oxy)pyrimidin-4-yl)amino)methyl)-5,7-dimethylisoquinolin-1-amine] | < 0.001 | > 5
Cc1cc2c(N)nccc2c(C)c1CNc1nccnc1NCc1cn2cc(C3CC3)ccc2n1 [Example 240] | 0.001 to 0.01 | 1 to 5
Cc1cc2c(N)nccc2c(C)c1CNc1cc(OCc2cc3cc(C4CC4)cc(CC(C)(C)C#N)n3n2)ncn1 [Example 510, 3-(2-(((6-(((1-amino-5,7-dimethylisoquinolin-6-yl)methyl)amino)pyrimidin-4-yl)oxy)methyl)-5-cyclopropylpyrazolo[1,5-a]pyridin-7-yl)-2,2-dimethylpropanenitrile] | 0.001 to 0.01 | 1 to 5
Cc1cc2c(N)nccc2c(C)c1CNc1cc(OCc2cc(C(N)=O)c3ncc(Cl)cc3c2)ncn1 [Example 401, 6-(((6-(((1-amino-5,7-dimethylisoquinolin-6-yl)methyl)amino)pyrimidin-4-yl)oxy)methyl)-3-chloroquinoline-8-carboxamide] | 0.001 to 0.01 | 1 to 5
N-((1-amino-5,7-dimethylisoquinolin-6-yl)methyl)-1-(4-((2-oxopyridin-1(2H)-y1)methyl)benzyl)-1H-1,2,3-triazole-4-carboxamide [Example 186] | < 0.001 | ≤ 1
Cc1cc2c(N)nccc2c(C)c1CNc1cc2c(ccn2Cc2ccc(Cn3cccn3)cc2)nn1 [Example I-457, 6-(((5-(4-((1H-pyrazol-1-yl)methyl)benzyl)-5H-pyrrolo[3,2-c]pyridazin-3-yl)amino)methyl)-5,7-dimethylisoquinolin-1-amine] | < 0.001 | ≤ 1
Cc1cc2c(N)nccc2c(C)c1CNC(=O)c1cn(Cc2ccc(N3CCCC3)nc2)nc1C(F)(F)F [Example 194, N-((1-amino-5,7-dimethylisoquinolin-6-yl)methyl)-1-((6-(pyrrolidin-1-yl)pyridin-3-yl)methyl)-3-(trifluoromethyl)-1H-pyrazole-4-carboxamide] | 0.001 to 0.01 | > 5
Cc1cc2c(N)nccc2c(C)c1CNc1cc(OCc2cc3cc(C4CC4)cc(CC(C)(C)C(N)=O)n3n2)ncn1 [Example 509, 3-(2-(((6-(((1-amino-5,7-dimethylisoquinolin-6-yl)methyl)amino)pyrimidin-4-yl)oxy)methyl)-5-cyclopropylpyrazolo[1,5-a]pyridin-7-yl)-2,2-dimethylpropanamide] | < 0.001 | 1 to 5
Cc1cc2c(N)nccc2c(C)c1CNc1cc2c(cn1)ncn2Cc1nc2ccc(C3CC3)cn2n1 [Example 503, 6-(((1-((6-cyclopropyl-[1,2,4]triazolo[1,5-a]pyridin-2-yl)methyl)-1H-imidazo[4,5-c]pyridin-6-yl)amino)methyl)-5,7-dimethylisoquinolin-1-amine] | < 0.001 | ≤ 1
Cc1ccc2cc(COc3cc(NCc4c(C)cc5c(N)nccc5c4C)ncn3)ccc2n1 [Example 371, 5,7-dimethyl-6-(((6-((2-methylquinolin-6-yl)methoxy)pyrimidin-4-yl)amino)methyl)isoquinolin-1-amine] | 0.001 to 0.01 | 1 to 5
Cc1cc2c(N)nccc2c(C)c1CNc1cc2c(cn1)ncn2Cc1cn2cc(C3CC3)ccc2n1 [Example 499, 6-(((1-((6-cyclopropylimidazo[1,2-a]pyridin-2-yl)methyl)-1H-imidazo[4,5-c]pyridin-6-yl)amino)methyl)-5,7-dimethylisoquinolin-1-amine] | < 0.001 | ≤ 1
Cc1cc2c(N)nccc2c(C)c1CNc1cc(OCc2cn3cc(C4CC4)ccc3n2)cnn1 [Example 426, 6-(((5-((6-cyclopropylimidazo[1,2-a]pyridin-2-yl)methoxy)pyridazin-3-yl)amino)methyl)-5,7-dimethylisoquinolin-1-amine, formic acid salt] | < 0.001 | 1 to 5
Cc1cc2c(N)nccc2c(C)c1CNc1cc2c(cn1)ncn2Cc1cc2cc(C3CC3)cnc2s1 [Example 504, 6-(((1-((5-cyclopropylthieno[2,3-b]pyridin-2-yl)methyl)-1H-imidazo[4,5-c]pyridin-6-yl)amino)methyl)-5,7-dimethylisoquinolin-1-amine] | < 0.001 | ≤ 1
Cc1cc2c(N)nccc2c(C)c1CNc1cc(OCc2nc3ncc(C4CC4)cn3n2)ncn1 [Example 384, 6-(((6-((6-cyclopropyl-[1,2,4]triazolo[1,5-a]pyrimidin-2-yl)methoxy)pyrimidin-4-yl)amino)methyl)-5,7-dimethylisoquinolin-1-amine] | 0.001 to 0.01 | 1 to 5
Cc1cc2c(N)nccc2c(C)c1CNc1cc(OCc2cn3cc(C4CC4)cc(C#N)c3n2)ncn1 [Example 258, 2-(((6-(((1-amino-5,7-dimethylisoquinolin-6-yl)methyl)amino)pyrimidin-4-yl)oxy)methyl)-6-cyclopropylimidazo[1,2-a]pyridine-8-carbonitrile] | < 0.001 | > 5
Cc1cc2c(N)nccc2c(C)c1CNc1cc2c(ccn2Cc2cc3cc(C4CC4)cnc3s2)cn1 [Example 283, 6-(((1-((5-cyclopropylthieno[2,3-b]pyridin-2-yl)methyl)-1H-pyrrolo[3,2-c]pyridin-6-yl)amino)methyl)-5,7-dimethylisoquinolin-1-amine] | 0.001 to 0.01 | 1 to 5
Cc1cc2c(N)nccc2c(C)c1CNc1cc(NCc2ccc3ncc(C4CC4)cc3c2)ncn1 [Example 314, N^4-((1-amino-5,7-dimethylisoquinolin-6-yl)methyl)-N^6-((3-cyclopropylquinolin-6-yl)methyl)pyrimidine-4,6-diamine] | < 0.001 | 1 to 5
Cc1cc2c(N)nccc2c(C)c1CNc1cc2c(cn1)nnn2Cc1cn2cc(C3CC3)ccc2n1 [Example 501, 6-(((1-((6-cyclopropylimidazo[1,2-a]pyridin-2-yl)methyl)-1H-[1,2,3]triazolo[4,5-c]pyridin-6-yl)amino)methyl)-5,7-dimethylisoquinolin-1-amine] | < 0.001 | ≤ 1
Cc1cc2c(N)nccc2c(C)c1CNc1nccc2nn(Cc3cn4cc(C5CC5)cnc4n3)cc12 [Example 392, 6-(((2-((6-cyclopropylimidazo[1,2-a]pyrimidin-2-yl)methyl)-2H-pyrazolo[4,3-c]pyridin-4-yl)amino)methyl)-5,7-dimethylisoquinolin-1-amine] | < 0.001 | ≤ 1
Cc1cc2c(N)nccc2c(C)c1CNc1cc(Cc2cn3cc(C4CC4)ccc3n2)ncn1 [Example 403, 6-(((6-((6-cyclopropylimidazo[1,2-a]pyridin-2-yl)methyl)pyrimidin-4-yl)amino)methyl)-5,7-dimethylisoquinolin-1-amine] | < 0.001 | 1 to 5
Cc1cc2c(N)nccc2c(C)c1CNc1cc2c(cn1)cnn2Cc1cn2cc(C3CC3)ccc2n1 [Example 268, 6-(((1-((6-cyclopropylimidazo[1,2-a]pyridin-2-yl)methyl)-1H-pyrazolo[4,3-c]pyridin-6-yl)amino)methyl)-5,7-dimethylisoquinolin-1-amine] | < 0.001 | ≤ 1
Cc1cc2c(N)nccc2c(C)c1CNC(=O)c1cnn(Cc2ccc(Cn3ccccc3=O)cc2)c1 [Example 192, N-((1-amino-5,7-dimethylisoquinolin-6-yl)methyl)-1-(4-((2-oxopyridin-1(2H)-y1)methyl)benzyl)-1H-pyrazole-4-carboxamide] | < 0.001 | ≤ 1
Cc1cc2c(N)nccc2c(C)c1CNc1cc(OCc2cc3cc(C4CC4)cnc3s2)ncn1 [Example 281, 6-(((6-((5-cyclopropylthieno[2,3-b]pyridin-2-yl)methoxy)pyrimidin-4-yl)amino)methyl)-5,7-dimethylisoquinolin-1-amine] | 0.001 to 0.01 | > 5
Cc1cc2c(N)nccc2c(C)c1CNc1cc2c(cn1)c(F)cn2Cc1cn2cc(C3CC3)ccc2n1 [Example 285, 6-(((1-((6-cyclopropylimidazo[1,2-a]pyridin-2-yl)methyl)-3-fluoro-1H-pyrrolo[3,2-c]pyridin-6-yl)amino)methyl)-5,7-dimethylisoquinolin-1-amine] | 0.001 to 0.01 | 1 to 5
Cc1cc2c(N)nccc2c(C)c1CNc1cc(OCc2cnc3ccc(C4CC4)cc3c2)ncn1 [Example 387, 6-(((6-((6-cyclopropylquinolin-3-yl)methoxy)pyrimidin-4-yl)amino)methyl)-5,7-dimethylisoquinolin-1-amine] | 0.001 to 0.01 | > 5
Cc1cc2c(N)nccc2c(C)c1CNc1cc(NCc2cc3cc(C4CC4)cnc3s2)ncn1 [Example 243, N4-((1-amino-5,7-dimethylisoquinolin-6-yl)methyl)-N6-((5-cyclopropylthieno[2,3-b]pyridin-2-yl)methyl)pyrimidine-4,6-diamine] | < 0.001 | ≤ 1

Source: patent publication US20260374754A1, “N-((ISOQUINOLIN-6-YL)METHYL)-1H-PYRAZOLE-4-CARBOXAMIDE DERIVATIVES AS PLASMA KALLIKREIN INHIBITORS FOR THE TREATMENT OF HEREDITARY ANGIODEMA” (Takeda Pharmaceutical Company Limited, priority 2022, published 2026)
